In patent US20250170155A1, “NUCLEOSIDE DERIVATIVES AND PRODRUGS THEREOF HAVING VIRAL GROWTH INHIBITORY ACTION” (Shionogi & Co., Ltd., priority 2021, published 2025):
Like-named read-outs stand apart in the source and are kept apart here.

How the values were obtained:
Format in all cases: cell-based
[1] = tested on: SARS-CoV-2 (hCoV-19/Japan/TY/WK 521/2020 strain); assay: microbe, parasite or virus in culture; details: HEK293T/ACE2-TMPRSS2 cells; for EC50: Severe acute respiratory syndrome coronavirus 2, HEK-293T, 72 h, read-out: SARS-CoV-2 EC50 (50% CPE inhibitory concentration), 293T-AT, 3 days culture
[2] = Cytotoxic activity evaluation, HEK293T/ACE2-TMPRSS2 cells; details: human, no virus
Procedure: (§1) <Operation Procedure (Cytotoxic Activity Evaluation)>
A 3- to 5-fold serial dilution series of test substances was prepared in DMSO, diluted with 2% FIBS/MEM so that the concentration of DMSO was 2%, and dispensed into a 96 or 384/well well plate (50 μL/well or 40 μL/well, DMSO final concentration 0.5%). • Dilution and dispensing of cells
The cells prepared to an appropriate number were seeded at 100 μL/well or 40 μL/well to the plate into which the test substance was dispensed. Thereafter, the cells were cultured in a CO2 incubator at 37° C. for 3 days. • Dispensing of CellTiter-Glo (registered trademark) 2.0 Reagent
(§2) Same as those described in the section for evaluation of antiviral activity • Measurement of luminescence intensity
(§3) Same as those described in the section for evaluation of antiviral activity
(§4) [formula] [formula] • Calculation of Selectivity Index (SI)

[3] = tested on: SARS-CoV-2 (hCoV-19/Japan/TY/WK-521/2020 strain); assay: CPE suppression effect confirmation test (SARS-CoV-2, Vero E6/TMPRSS2 cells), antiviral activity; details: for EC50: read-out: SARS-CoV-2 EC50 (50% CPE inhibitory concentration), 3 days culture
[4] = Cytotoxic activity evaluation, Vero E6/TMPRSS2 cells; details: African green monkey, no virus
Procedure: as §1
(§5) A 3- to 5-fold serial dilution series of test substances was prepared in DMSO, diluted with 2% FBS/MEM so that the concentration of DMSO was 2%, and dispensed into a 96 well plate (50 μL/well, DMSO final concentration 0.5%). • Dilution and dispensing of cells
(§6) The cells prepared to an appropriate number were seeded at 100 μL/well to the plate into which the test substance was dispensed. Thereafter, the cells were cultured in a CO2 incubator at 37° C. for 3 days. • Dispensing of CellTiter-Glo (registered trademark) 2.0 Reagent
as §2, §3
(§7) Excel, TIBCO Spotfire, or a program having equivalent calculation processing capability based on the following calculation formula.

[5] = tested on: influenza virus (A/WSN/33 (H1N1) strain); assay: CPE suppression effect confirmation test (influenza virus, RPMI 2650 cells), antiviral activity; details: for EC50: read-out: Influenza EC50 (50% CPE inhibitory concentration), A/WSN/33 (H1N1), 3 to 6 days
[6] = Cytotoxic activity evaluation, RPMI 2650 cells; details: human, no virus, 3 to 6 days
Procedure: as §1
(§8) On the day before the compound treatment, cells prepared to an appropriate number were seeded in a 96 well plate at 100 μL/well. Thereafter, the cells were cultured in a CO2 incubator at 37° C. • Preparation of 2 μg/mL trypsin/0.5% BSA/MEM
(§9) Same as those described in the section for evaluation of antiviral activity • Dilution and dispensing of test substance
(§10) A 3- to 5-fold serial dilution series of test substances was prepared in DMSO in advance, and diluted with 2 μg/mL trypsin/0.5% BSA/MEM so that the final concentration of DMSO was 0.5% (100 to 200 μL/well). The cells were washed with MEM, and then cultured in a test substance-added medium for 3 to 6 days. Double measurement was performed for each drug. • Dispensing of resazurin solution
(§11) Same as those described in the section for evaluation of antiviral activity • Measurement of fluorescence intensity
as §3, §4

Vero E6/TMPRSS2 cells = assay: Cytotoxic activity evaluation, Vero E6/TMPRSS2 cells; details: read-out: SARS-CoV-2 test CC50 (50% cell proliferation inhibitory concentration), no virus, 3 days
Procedure: as §1, §5, §6, §2, §3, §7

RPMI 2650 cells = assay: Cytotoxic activity evaluation, RPMI 2650 cells; details: read-out: Influenza test CC50 (50% cell proliferation inhibitory concentration), no virus, 3 to 6 days
Procedure: as §1, §8, §9, §10, §11, §3, §4

[7] = Severe acute respiratory syndrome coronavirus 2, VeroE6/TMPRSS2, 72 h

SMILES	SARS-CoV-2 SI (Selectivity Index), 293T-AT [1]	EC50 [1] [µM]	CC50 at 3 days [2] [µM]	EC50 [5] [µM]	also measured
CCn1cc(-c2cc([C@@H]3N[C@H](CO)[C@@H](O)[C@H]3O)n3ncnc(N)c23)nn1.Cl [Compound I-093]	>2.37	211	> 500	–	–
Cl.[2H]C([2H])(O)[C@H]1N[C@@H](c2cc(C(N)=O)c3c(N)ncnn23)[C@H](O)[C@@H]1O [Compound I-095]	2769	0.0228	62.9	–	–
Cn1ncc(-c2cc([C@@H]3N[C@H](CO)[C@@H](O)[C@H]3O)n3ncnc(N)c23)n1 [Compound I-086]	19.4	11.6	225	–	–
Cl.Nc1ncnn2c([C@@H]3N[C@H](CO)[C@@H](O)[C@H]3O)cc(-c3nc[nH]n3)c12 [Compound I-037]	–	–	–	> 4	SARS-CoV-2 SI (Selectivity Index) [3]: 8.63; EC50 [3, 7]: 1.97 µM; CC50 at 3 days [4]: 17 µM; Influenza SI (Selectivity Index) [5]: <1.70; CC50 [6]: 6.81 µM
N#C[C@@]1(c2c[nH]c3c(N)ncnc23)O[C@H](CO)[C@@H](O)[C@H]1O [Compound I-048]	–	–	–	–	EC50 [3]: 40.9 µM; CC50 (Vero E6/TMPRSS2 cells): > 500 µM
CC1(C)O[C@@H]2[C@H](O1)[C@@H](CO)N[C@H]2c1cc(/C=N/O)c2c(N)ncnn12 [Compound I-018]	–	–	–	1.06	CC50 (RPMI 2650 cells): > 500 µM
N/C(=N\O)c1cc([C@@H]2N[C@H](CO)[C@@H](O)[C@H]2O)n2ncnc(N)c12 [Compound I-016]	–	–	–	–	EC50 [3]: 1.57 µM; CC50 (Vero E6/TMPRSS2 cells): > 500 µM
Cc1nc(-c2cc([C@@H]3N[C@H](CO)[C@@H](O)[C@H]3O)n3ncnc(N)c23)n[nH]1 [Compound I-088]	>16.4	30.4	> 500	–	–
Cc1nc(N)c2c(C(N)=O)cc([C@@H]3N[C@H](CO)[C@@H](O)[C@H]3O)n2n1.Cl [Compound I-089]	>14.2	35.3	> 500	–	–
Cl.Nc1nc(F)nn2c([C@@H]3N[C@H](CO)[C@@H](O)[C@H]3O)cc(-c3ncc[nH]3)c12 [Compound I-094]	>10.2	49.1	> 500	–	–
Cl.Nc1ncnn2c([C@@H]3N[C@H](CO)[C@@H](O)[C@H]3O)cc(-c3ccn(CCO)n3)c12 [Compound I-092]	>1577	0.317	> 500	–	–
Cn1ccc(-c2cc([C@H]3[C@@H]4OC(C)(C)O[C@@H]4[C@@H](CO)N3C(=O)OC(C)(C)C)n3ncnc(N)c23)n1 [Compound I-030]	–	–	–	7.65	CC50 (RPMI 2650 cells): > 500 µM
OC[C@H]1N[C@@H](c2ccc3c(NO)ncnn23)[C@H](O)[C@@H]1O [Compound I-020]	–	–	–	20.2	CC50 (RPMI 2650 cells): > 500 µM
Cc1cnc(-c2cc([C@@H]3N[C@H](CO)[C@@H](O)[C@H]3O)n3ncnc(N)c23)o1.Cl [Compound I-090]	>13.1	38.1	> 500	–	–
Nc1ncnn2c([C@@H]3N[C@H](CO)[C@@H](O)[C@H]3O)cnc12 [Compound I-001]	–	–	–	1.05	SARS-CoV-2 SI (Selectivity Index) [3]: <1.22; EC50 [3, 7]: > 0.8 µM; CC50 at 3 days [4]: 0.977 µM; Influenza SI (Selectivity Index) [5]: 67.1; CC50 [6]: 70.5 µM
Cl.Cl.Nc1ncnn2c([C@@H]3N[C@H](CO)[C@@H](O)[C@H]3O)cc(-c3c[nH]cn3)c12 [Compound I-023]	–	–	–	0.983	SARS-CoV-2 SI (Selectivity Index) [3]: 923; EC50 [3, 7]: 0.17 µM; CC50 at 3 days [4]: 157 µM; Influenza SI (Selectivity Index) [5]: 52.7; CC50 [6]: 51.8 µM

SMILES	SARS-CoV-2 SI (Selectivity Index), 293T-AT [1]	EC50 [1] [µM]	CC50 at 3 days [2] [µM]	EC50 [5] [µM]	also measured
Nc1ncnn2c([C@@H]3O[C@](F)(CO)[C@@H](O)C3(F)F)ccc12 [Compound I-008]	–	–	–	7.01	CC50 (RPMI 2650 cells): 432 µM
CC(C)(C)OC(=O)N1[C@H](CO)[C@@H](O)[C@@H](O)[C@@H]1c1cc(N)c2c(N)ncnn12 [Compound I-024]	–	–	–	47.9	EC50 [3]: 49.3 µM; CC50 (Vero E6/TMPRSS2 cells): 189 µM; CC50 (RPMI 2650 cells): 310 µM
Cl.Nc1ncnn2c([C@@H]3N[C@H](CO)[C@@H](O)[C@H]3O)cc(-c3nc4ccccc4s3)c12 [Compound I-045]	–	–	–	–	SARS-CoV-2 SI (Selectivity Index) [3]: 25.4; EC50 [3, 7]: 3.78 µM; CC50 at 3 days [4]: 96 µM
Cl.Nc1ncnn2c([C@@H]3N[C@H](CO)[C@@H](O)[C@H]3O)cc(-c3ccn[nH]3)c12 [Compound I-029]	–	–	–	–	SARS-CoV-2 SI (Selectivity Index) [3]: 9.01; EC50 [3, 7]: 34.7 µM; CC50 at 3 days [4]: 316 µM
CCn1ccc(-c2cc([C@@H]3N[C@H](CO)[C@@H](O)[C@H]3O)n3ncnc(N)c23)n1.Cl [Compound I-081]	222	1.38	306	–	–
Cc1c[nH]c(-c2cc([C@@H]3N[C@H](CO)[C@@H](O)[C@H]3O)n3ncnc(N)c23)n1 [Compound I-091]	>2.29	218	> 250	–	–
CC(O)c1cc([C@@H]2N[C@H](CO)[C@@H](O)[C@H]2O)c2ncnc(N)n12 (stereo partly drawn) [Compound I-038]	–	–	–	4.41	CC50 (RPMI 2650 cells): > 500 µM
Cc1cc(-c2cc([C@@H]3N[C@H](CO)[C@@H](O)[C@H]3O)n3nc(F)nc(N)c23)[nH]n1.Cl [Compound I-084]	48.2	5.33	257	–	–
N#C[C@@]1(c2ccn3c(N)ncnc23)O[C@H](CO)[C@@H](O)[C@H]1O [Compound I-046]	–	–	–	–	SARS-CoV-2 SI (Selectivity Index) [3]: 15.6; EC50 [3, 7]: 31.1 µM; CC50 at 3 days [4]: 485 µM
NC(=O)c1cc([C@@H]2N[C@H](CO)[C@@H](O)[C@H]2O)n2ncnc(N)c12 [Compound I-010]	1050	0.0395	–	–	SARS-CoV-2 SI (Selectivity Index) [3]: 2488; EC50 [3, 7]: 0.18 µM; CC50 at 3 days [4]: 448 µM
CCn1cc(-c2cc([C@@H]3N[C@H](CO)[C@@H](O)[C@H]3O)n3ncnc(N)c23)cn1.Cl [Compound I-044]	–	–	–	–	SARS-CoV-2 SI (Selectivity Index) [3]: 16.6; EC50 [3, 7]: 22.6 µM; CC50 at 3 days [4]: 444 µM
Cl.Nc1ncnn2c([C@@H]3N[C@H](CO)[C@@H](O)[C@H]3O)cc(-c3cc(O)ccn3)c12 [Compound I-087]	3.97	18.9	75	–	–
Cl.Nc1nc(F)nn2c([C@@H]3N[C@H](CO)[C@@H](O)[C@H]3O)cc(-c3c[nH]nn3)c12 [Compound I-082]	37.8	3.97	150	–	–
Nc1ncnn2c([C@@H]3N[C@H](CO)[C@@H](O)[C@H]3O)cc(O)c12 [Compound I-022]	–	–	–	105	EC50 [3]: 1.03 µM; CC50 (Vero E6/TMPRSS2 cells): 129 µM; CC50 (RPMI 2650 cells): > 500 µM
Cl.Nc1ncnc2c([C@@H]3N[C@H](CO)[C@@H](O)[C@H]3O)cc(-c3c[nH]nn3)n12 [Compound I-083]	8.71	5.2	45.3	–	–
